For one compound, IC50 results are on record in patent EP1149106B1, “4,5-AZOLO-OXINDOLES” (F. HOFFMANN-LA ROCHE AG, priority 1998, dated 2000).

The subject of assay [1] is estrogen receptor negative epithelial breast carcinoma line (MDA-MB-435). Description: Cell-based antiproliferative assay (MTT), MDA-MB-435. To be noted: Homo sapiens, MDA-MB-435, 120 h, 2000 cells per well, 5 days post addition of test compound, read-out: MDA-MB435 IC50. On the procedure: The estrogen receptor negative epithelial breast carcinoma line (MDA-MB-435) was purchased from American Type Cell Culture Collection (ATCC; Rockville, MD) and was grown in the medium recommended by ATCC. For analysis of the effect of the test compounds on growth of these cells, the cells were plated at 2000 cells per well in a 96-well tissue culture plate, and were incubated overnight at 37°C with 5% CO2. The next day, the test compounds were dissolved in 100% dimethyl sulfoxide (DMSO) to yield a 10 mM stock solution. Each compound was diluted with sterile medium to 1 mM in a sufficient quantity to yield a final concentration of 120 µM. The compounds were then serially diluted in medium with 1.2% DMSO. […] The plates were returned to the incubator, and 5 days post addition of test compound, were analyzed as described below.
3-(4,5-Dimethylthiazole-2-yl)-2,5-diphenyl-2H-tetrazolium bromide (thiazolyl blue; MTT) was added to each well to yield a final concentration of 1 mg/ml. […] Absorbencies were read in a microtiter plate reader (Molecular Dynamics) at a wavelength of 570 nm with a 650 nm reference. Percent inhibition was calculated by subtracting the absorbance of the blank (no cell) wells from all wells, then subtracting the division of the average absorbance of each test duplicate by the average of the controls from 1.00. […]

Assay [2] has as its target T1, Cyclin E/CDK2 (Homo sapiens, UniProt P24941).
T1 construct: made in house; host or cells: insect cells
Description: CDK2 FlashPlate Assay (Rb phosphorylation, 33P-ATP). To be noted: recombinant human Cyclin E/CDK2, Rb substrate, 25 minutes at room temperature. It counts as biochemical. On the procedure: To determine inhibition of CDK2 activity, purified recombinant retinoblastoma (Rb) protein was coated on 96 well FlashPlates (New England Nuclear, Boston, MA). Rb is a natural substrate for phosphorylation by CDK2 (Herwig and Strauss Eurr. J. Biochem., Vol. 246 (1997) pp. 581-601 and references therein). Recombinant active human Cyclin E/CDK2 complexes were partially purified from extracts of insect cells. The active Cyclin E/CDK2 was added to the Rb-coated FlashPlates along with ^33P-ATP and dilutions of test compounds. Plates were incubated for 25 minutes at room temperature with shaking, then washed and counted in the Topcount scintillation counter (Packard Instrument Co., Downers Grove, IL). Dilutions of test compounds were tested in duplicate in each assay. The percent inhibition of Rb phosphorylation, which is a measure of the inhibition of CDK2 activity, was determined according to the following formula: [formula] where "test compound" refers to the average counts per minute of the test duplicates, "nonspecific" refers to the average counts per minute when no Cyclin E/CDK2 was added, and "total" refers to the average counts per minute when no compound was added.

In assay [3] the test system is colon carcinoma line SW480. Description: Cell-based antiproliferative assay (MTT), SW480. The following applies: Homo sapiens, SW480, 96 h, 1000 cells per well, 4 days post addition of test compound.

As to `COc1cc[nH]c1/C=C1\C(=O)Nc2ccc3[nH]c(C)nc3c21` [P, (Z)-8-[(3-Methoxy-1H-pyrrol-2-yl)methylene]-2-methyl-3,6,7,8-tetrahydro-pyrrolo-[3,2-e]benzimidazol-7-one], the concentration for half-maximal inhibition (IC50) (commonly the point on the concentration scale where inhibition reaches its midpoint) in assay [1] is less than 3.5 µM; in assay [2], less than 3.5 µM; in assay [3] it was less than 1 µM.
